Converted amounts (≈) assume the structure as drawn.
What was measured:
E. coli ATCC 25922 [1] = assay: Resistance development study, serial passages; type: cell-based, Escherichia coli; details: 80 serial passages at sub-inhibitory concentration (0.5-fold MIC)
Description: (§1) The ability of LI14 peptide to induce resistance was studied as previously described. Resistance to the therapeutically important drugs rifampicin and ciprofloxacin was measured using S. aureus ATCC 29213 and E. coli ATCC 25922 as test strains. The middle and final MICs were monitored after eighty such serial passages exposed to the tested medicines (0.5-fold MIC), and the fold change in MIC increase was recorded.

MDR E. coli B2 = assay: Checkerboard assay with LI14; type: cell-based, Escherichia coli; details: for FIC index: antibiotic in combination with LI14, checkerboard 8 × 8, 18 h, ≤0.5 = synergy; for Potentiation: antibiotic potentiation in the presence of ¼ MIC of LI14; for MICa of antibiotic: in the absence of LI14; for MICb of antibiotic: in the presence of ¼ MIC of LI14
Description: (§2) Through checkerboard assay using two-fold serially diluted drugs (8 × 8 matrix), we evaluated the synergistic effects of LI14 with different mechanisms of antibiotics. The absorbance of cultures at 600 nm was determined by a Microplate reader after 18 h of incubation with (1.5 × 10^6 CFUs/mL) bacterial suspension. The FIC index (FICI) was calculated by performing two biological replicates for each combination. The formula is as follows: FIC index = FICIa + FICIb = MICab/MICa + MICba/Mb. An FIC index of ≤0.5 indicates synergy.
(§3) a/bMICs of antibiotics in the absence or presence of ¼ MIC of LI14.
(§4) cDegree of antibiotics potentiation in the presence of ¼ MIC of LI14.
(§5) –, none of potentiation activity.

[2] = system: sensitive E. coli ATCC 25922; assay: Checkerboard assay with LI14; type: cell-based, Escherichia coli; details: for FIC index: antibiotic in combination with LI14, checkerboard; for MICa of antibiotic: in the absence of LI14
Description: as §2, §3, §4, §5

MRSA T144 [3] = assay: Checkerboard assay with LI14; type: cell-based, Staphylococcus aureus
Description: as §2, §3, §4, §5

[4] = system: E. coli B2 (blaNDM-5 + mcr-1); assay: microbe, parasite or virus in culture; type: cell-based, Escherichia coli; details: Escherichia coli; E. coli B2 (blaNDM-5 + mcr-1); MHB, 16-18 h, 37 °C; read-out: MIC
Description: (§6) An antimicrobial activity study was conducted on all peptides against a panel of laboratory bacteria, including ATCC source and clinical isolates with resistance determinants. According to CLSI2021 guidelines, we tested the minimum inhibitory concentrations (MICs) of peptides using standard broth micro-dilutions. Briefly, bacteria grown to exponential phase were diluted in 1:1000 to MHB, subsequently, equivalent amounts of bacterial suspension (1.5 × 10^6 CFUs/mL) were mixed with different concentrations of peptides in a sterilized 96-well microtiter plate (Corning).

E. coli ATCC 25922 [5] = assay: microbe, parasite or virus in culture; type: cell-based, Escherichia coli; details: Escherichia coli, ATCC25922; E. coli ATCC 25922; MHB, 16-18 h, 37 °C; read-out: MIC
Description: as §6

MRSA T144 [6] = assay: microbe, parasite or virus in culture; type: cell-based, Staphylococcus aureus; details: Staphylococcus aureus; MRSA T144; MHB, 16-18 h, 37 °C; read-out: MIC
Description: as §6

S. aureus ATCC 29213 [7] = assay: microbe, parasite or virus in culture; type: cell-based, Staphylococcus aureus; details: Staphylococcus aureus, ATCC29213; S. aureus ATCC 29213; MHB, 16-18 h, 37 °C; read-out: MIC
Description: as §6

P. aeruginosa PA14 = assay: microbe, parasite or virus in culture; type: cell-based, Pseudomonas aeruginosa; details: Pseudomonas aeruginosa; P. aeruginosa PA14; MHB, 16-18 h, 37 °C; read-out: MIC
Description: as §6

[8] = system: P. cibarius HNCF44W (blaNDM-1 + tet(X6)); assay: organism not typed; type: cell-based; details: P. cibarius HNCF44W (blaNDM-1 + tet(X6)); MHB, 16-18 h, 37 °C; read-out: MIC
Description: as §6

[9] = system: E. coli DH5α (PUC19-mcr-1); assay: MIC broth microdilution; type: cell-based, Escherichia coli; details: Escherichia coli
Description: as §6

E. coli DH5α (PUC19) = assay: MIC broth microdilution; type: cell-based, Escherichia coli; details: Escherichia coli; engineered E. coli DH5α (PUC19); MHB, 16-18 h, 37 °C; read-out: MIC
Description: as §6

[10] = system: E. coli DH5α (PUC19-tet(X4)); assay: MIC broth microdilution; type: cell-based; details: Escherichia coli
Description: as §6

MRSA 1518 = assay: microbe, parasite or virus in culture; type: cell-based, Staphylococcus aureus; details: Staphylococcus aureus; MRSA 1518; MHB, 16-18 h, 37 °C; read-out: MIC
Description: as §6

MRSA 1530 = assay: microbe, parasite or virus in culture; type: cell-based, Staphylococcus aureus; details: Staphylococcus aureus; MRSA 1530; MHB, 16-18 h, 37 °C; read-out: MIC
Description: as §6

[11] = system: S. aureus 215 (cfr + LZD^R); assay: MIC broth microdilution; type: cell-based, Staphylococcus aureus; details: Staphylococcus aureus
Description: as §6

S. aureus G16 (RIF^R) = assay: MIC broth microdilution; type: cell-based, Staphylococcus aureus; details: Staphylococcus aureus
Description: as §6

E. coli CP131 (mcr-3) = assay: microbe, parasite or virus in culture; type: cell-based, Escherichia coli; details: Escherichia coli
Description: as §6

E. coli C3 (blaNDM-1) = assay: microbe, parasite or virus in culture; type: cell-based, Escherichia coli; details: Escherichia coli; E. coli C3 (blaNDM-1); MHB, 16-18 h, 37 °C; read-out: MIC
Description: as §6

E. coli G6 (blaNDM-5) = assay: microbe, parasite or virus in culture; type: cell-based, Escherichia coli; details: Escherichia coli; E. coli G6 (blaNDM-5); MHB, 16-18 h, 37 °C; read-out: MIC
Description: as §6

E. coli G92 (mcr-1) = assay: microbe, parasite or virus in culture; type: cell-based, Escherichia coli; details: Escherichia coli
Description: as §6

E. coli B3-1 (tet(X4)) = assay: microbe, parasite or virus in culture; type: cell-based, Escherichia coli; details: Escherichia coli; E. coli B3-1 (tet(X4)); MHB, 16-18 h, 37 °C; read-out: MIC
Description: as §6

E. coli 1F28 (tet(X4)) = assay: microbe, parasite or virus in culture; type: cell-based, Escherichia coli; details: Escherichia coli; E. coli 1F28 (tet(X4)); MHB, 16-18 h, 37 °C; read-out: MIC
Description: as §6

E. faecium 5F-10 = assay: microbe, parasite or virus in culture; type: cell-based, Enterococcus faecium; details: Enterococcus faecium, 5F10; E. faecium 5F-10; MHB, 16-18 h, 37 °C; read-out: MIC
Description: as §6

[12] = system: K. pneumoniae ATCC 700603; assay: microbe, parasite or virus in culture; type: cell-based, Klebsiella pneumoniae; details: Klebsiella pneumoniae, ATCC700603; K. pneumoniae ATCC 700603; MHB, 16-18 h, 37 °C; read-out: MIC
Description: as §6

[13] = system: K. pneumoniae D120 (mcr-8); assay: microbe, parasite or virus in culture; type: cell-based, Klebsiella pneumoniae; details: Klebsiella pneumoniae; K. pneumoniae D120 (mcr-8); MHB, 16-18 h, 37 °C; read-out: MIC
Description: as §6

[14] = system: A. baumannii C222 (tet(X6)); assay: microbe, parasite or virus in culture; type: cell-based, Acinetobacter baumannii; details: Acinetobacter baumannii
Description: as §6

A. baumannii ATCC 19609 = assay: microbe, parasite or virus in culture; type: cell-based, Acinetobacter baumannii; details: Acinetobacter baumannii, ATCC19609; A. baumannii ATCC 19609; MHB, 16-18 h, 37 °C; read-out: MIC
Description: as §6

[15] = system: S. enteritidis ATCC 13076; assay: microbe, parasite or virus in culture; type: cell-based; details: Salmonella enterica; S. enteritidis ATCC 13076; MHB, 16-18 h, 37 °C; read-out: MIC
Description: as §6

E. faecalis 1F-1 = assay: microbe, parasite or virus in culture; type: cell-based; details: Enterococcus faecalis, 1F1; E. faecalis 1F-1; MHB, 16-18 h, 37 °C; read-out: MIC
Description: as §6

[16] = system: E. faecalis A4 (VRE, VanA); assay: microbe, parasite or virus in culture; type: cell-based; details: Enterococcus faecalis; E. faecalis A4 (VRE, VanA); MHB, 16-18 h, 37 °C; read-out: MIC
Description: as §6

S. aureus ATCC 29213 [17] = assay: Resistance development study, serial passages; type: cell-based, Staphylococcus aureus; details: 80 serial passages at sub-inhibitory concentration (0.5-fold MIC)
Description: as §1

E. coli B2 = assay: Neutropenic mouse thigh infection model; type: in vivo, CD-1 mice; details: RIF 20 mg/kg i.p., 48 h
Description: Female CD-1 mice (n = 6 biologically independent animals per group) were first given cyclophosphamide (two consecutive injections of 150 and 100 mg kg^−1 at 4 and 1 day before infection) to construct neutropenia models. The mice’s right thighs were then injected with 100 μL MRSA T144 or E. coli B2 suspensions (10^5 CFUs per mouse). Post-infection of 1 h, 100 μL LI14 peptide (10 or 20 mg/kg), ampicillin/rifampicin (20 mg/kg) or a combination of LI14 with ampicillin/ rifampicin (10 + 20 mg/kg) were given by intraperitoneal injection. All mice were euthanized 48 h after drug administration, and right thigh muscle tissue was removed aseptically, homogenized, serially diluted, and plated on MHA to qualify bacterial loads after overnight incubation at 37 °C.

[18] = serum versus MHB broth medium; cited from earlier work
Source text: Amphiphilicity, ɑ-helicity and appropriate peptide chain length are key factors for AMP activity.

[19] = in the presence of ¼ MIC of LI14

## O=C(O)c1cn(C2CC2)c2cc(N3CCNCC3)c(F)cc2c1=O [Ciprofloxacin]
E. coli ATCC 25922 [1]
  Increase in MIC after serial passages: 256 fold
MDR E. coli B2
  FIC index: 0.188
  Potentiation: 8 fold
  MICa of antibiotic: 32 µg/mL
  MICb of antibiotic: 4 µg/mL
[2]
  FIC index: 1.5
  MICa of antibiotic: 0.008 µg/mL
[2]; [19]
  MICb of antibiotic: 0.008 µg/mL
MRSA T144 [3]; antibiotic in combination with LI14, checkerboard
  FIC index: 2.0
MRSA T144 [3]; in the absence of LI14
  MICa of antibiotic: 2 µg/mL
MRSA T144 [3]; [19]
  MICb of antibiotic: 2 µg/mL

## C[C@@H](O)[C@H]1C(=O)N2C(C(=O)O)=C(S[C@@H]3CN[C@H](C(=O)N(C)C)C3)[C@H](C)[C@H]12 [Meropenem]
[4]
  MIC: 32 µg/mL
E. coli ATCC 25922 [5]
  MIC: 0.03 µg/mL (≈ 0.0782 µM)
MDR E. coli B2
  FIC index: 2
  MICa of antibiotic: 32 µg/mL
  MICb of antibiotic: 32 µg/mL
MRSA T144 [6]
  MIC: 1 µg/mL (≈ 2.61 µM)
S. aureus ATCC 29213 [7]
  MIC: < 0.0625 µg/mL
P. aeruginosa PA14
  MIC: 32 µg/mL (≈ 83.4 µM)
[8]
  MIC: > 16 µg/mL
[9]
  MIC: < 0.125 µg/mL
E. coli DH5α (PUC19)
  MIC: < 0.125 µg/mL
[10]
  MIC: < 0.125 µg/mL
MRSA 1518
  MIC: 0.25 µg/mL (≈ 0.652 µM)
MRSA 1530
  MIC: 0.25 µg/mL (≈ 0.652 µM)
[11]
  MIC: 1 µg/mL (≈ 2.61 µM)
S. aureus G16 (RIF^R)
  MIC: 2 µg/mL (≈ 5.22 µM)
E. coli CP131 (mcr-3)
  MIC: < 0.125 µg/mL
E. coli C3 (blaNDM-1)
  MIC: 8 µg/mL (≈ 20.9 µM)
E. coli G6 (blaNDM-5)
  MIC: 64 µg/mL (≈ 167 µM)
E. coli G92 (mcr-1)
  MIC: < 0.125 µg/mL
E. coli B3-1 (tet(X4))
  MIC: < 0.0625 µg/mL
E. coli 1F28 (tet(X4))
  MIC: 0.25 µg/mL (≈ 0.652 µM)
E. faecium 5F-10
  MIC: 8 µg/mL (≈ 20.9 µM)
[12]
  MIC: < 0.0625 µg/mL
[13]
  MIC: < 0.0625 µg/mL
[14]
  MIC: < 0.125 µg/mL
A. baumannii ATCC 19609
  MIC: < 0.0625 µg/mL
[15]
  MIC: < 0.0625 µg/mL
E. faecalis 1F-1
  MIC: 8 µg/mL (≈ 20.9 µM)
[16]
  MIC: > 64 µg/mL

## CO[C@H]1/C=C/O[C@@]2(C)Oc3c(C)c(O)c4c(O)c(c(/C=N/N5CCN(C)CC5)c(O)c4c3C2=O)NC(=O)/C(C)=C\C=C\[C@H](C)[C@H](O)[C@@H](C)[C@@H](O)[C@@H](C)[C@H](OC(C)=O)[C@@H]1C [Rifampicin]
S. aureus ATCC 29213 [17]
  Increase in MIC after serial passages: 1024 fold
MDR E. coli B2
  FIC index: < 0.078
  Potentiation: > 64 fold
  MICa of antibiotic: > 128 µg/mL
  MICb of antibiotic: 2 µg/mL
[2]
  FIC index: < 0.078
  MICa of antibiotic: > 128 µg/mL
[2]; [19]
  MICb of antibiotic: 2 µg/mL
  Potentiation: > 64 fold
E. coli B2; animal 1
  Bacterial load in thigh: 6.89 Log10CFUs/thigh
E. coli B2; animal 2
  Bacterial load in thigh: 6.97 Log10CFUs/thigh
E. coli B2; animal 3
  Bacterial load in thigh: 7.76 Log10CFUs/thigh
E. coli B2; animal 4
  Bacterial load in thigh: 7.96 Log10CFUs/thigh
E. coli B2; animal 5
  Bacterial load in thigh: 6.83 Log10CFUs/thigh
E. coli B2; animal 6
  Bacterial load in thigh: 6.97 Log10CFUs/thigh

## LL-37: human AMP LL-37, previously reported peptide antibiotic
[18]
  Change of MIC value in serum: greater than 128 fold

From publication PMC9452538, “The antimicrobial peptide LI14 combats multidrug-resistant bacterial infections” (Communications Biology, 2022)
